The target of test [1] is human emopamil binding protein and human 7-dehydrocholesterol reductase co-expressing cell membrane (Homo sapiens (Human), UniProt Q15125). The experiment in a line: hEBP-DHCR7 radioligand filtration binding assay with [3H]-Compound 118A*. The following applies: radioligand [3H]-Compound 118A*; HEK293 membrane co-expressing hEBP and DHCR7. As to the method: Membrane Preparation: human emopamil binding protein and human 7-dehydrocholesterol reductase co-expressing cells were generated by transient transfecting host human embryonic kidney (HEK) 293 cells with 2 DNA constructs containing each protein's coding sequence. Cells were suspension cultured at 37° C. with 5% CO2 in […] 293 Expression Medium (Thermofisher). Whole cell membrane was prepared by harvesting the cell pellet, adding cold membrane buffer (50 mM Tris, pH7.5, 1× Roche COMPLETE EDTA-free protease inhibitor cocktail) 10 times volume of the cell pellets weight, lysing cell pellet on ice by using Dounce homogenizer, spinning at 200 g 4° C. for 15 min, collecting supernatant and spinning again at 25000 g 4° C. for 50 min, transferring pellet to Dounce homogenizer, re-suspending pellet by homogenizing in membrane buffer on ice to reach ˜25 mg/mL, then keeping whole cell membrane aliquots at −80° C.
Compounds were prepared in a 96-well U bottom plate using an Echo550 machine and 10 mM compound DMSO stock solution, followed by an 8-dose 5-fold serial dilutions protocol with final testing compound concentration ranging from 0.06 to 5000 nM, with DMSO back fill to 100 nL/well and n=2. […] The UniFilter-96 GF/B plates were pre-treated by adding 50 μl/well of 0.3% (v/v) PEI to UniFilter-96 GF/B plates. The plates were sealed and incubated at 4° C. for 3 hrs. Then, the plates were washed with ice-cold assay buffer 3 times. The radioligand binding assay was prepared by adding assay buffer diluted hEBP-DHCR7 membrane at 66.7 μg/ml x 150 μl/well into the 96-well compound plate to reach 10 μg membrane per well. Then, the assay buffer diluted [3H]-Compound 118A* was added at 25 nM×50 μl/well. Following this, the plate was centrifuged at 1000 rpm for 30 secs. The plate was then sealed and agitated at 600 rpm at 22° C. for 5 min, and then incubated at 22° C. for 3 hrs. The incubation was stopped by transferring the binding solution to the pre-treated UniFilter-96 GF/B plate, vacuum filtrated, and then washed four times with ice-cold assay buffer. Following this, the plates were dried at 37° C. for 45 min. The plates were then sealed at the bottom. 40 μl/well of scintillation cocktail was added to the plates. A MicroBeta2 microplate counter was then used to read the plate and analyze the data. For reference and test compounds, the results are expressed as % Inhibition, using the normalization equation: N=100-100×(U−C2)/(C1−C2), where U is the unknown value, C1 is the average of high controls, and C2 is the average value of low controls. The IC50 was determined by fitting percentage of inhibition as a function of compound concentrations with Hill equation using XLfit. Results are expressed as hEBP-DHCR7 Ki (uM) in Table 4. Ki was calculated as described above.

Test [2] deals with zymostenol accumulation in EpiSC-derived OPCs (EBP). The experiment in a line: GC/MS-based sterol profiling, zymostenol accumulation. It is filed as cell-based, mouse. The following applies: Mus musculus, 24 h, 8 doses from 0.15 nM to 333 nM, read-out: mZymo GCMS EC50. How it is done:
(§1) To assess effects of treatments on OPCs, all treatments were assayed in two or more independent platings of epiblast stem cell-derived OPCs (EpiSC). EpiSC-derived OPCs were obtained using in vitro differentiation protocols and culture conditions described previously (Najm et al, 2011, Nature Methods). OPCs were expanded and frozen down in aliquots. OPCs were thawed into growth conditions for at least one passage before use in further assays.
Sterols were monitored using a modified Folch wash protocol (Hubler et al, 2018, Nature). EpiSC-derived OPCs were plated at 100,000 cells per well in PO— and laminin-coated 96-well plates in N2B27 media without growth factors. After 24 hours, cells were rinsed with saline and plates were frozen. Cholesterol-d7 standard was then added to each well before drying under nitrogen stream and derivatization with 55 μl of bis(trimethylsilyl) trifluoroacetamide. After derivatization, 2 μl were analyzed by gas chromatography/mass spectrometry using an Agilent 5973 Network Mass Selective Detector equipped with a 6890 gas chromatograph system and a HP-5MS capillary column (30 m x 0.25 mm×[…]). Samples were analyzed in full scan mode using electron impact ionization; ion fragment peaks were integrated to calculate sterol abundance, and quantitation was relative to cholesterol-d7. The following ion fragments were used to quantitate each metabolite: cholesterol-d7 (465), FF-Mas (482), cholesterol (368), zymostenol (458), zymosterol (456), Desmosterol (456, 343), 7-dehydrocholesterol (456, 325), lanosterol (393), lathosterol (458), 14-dehydrozymostenol (456, 351). […] All standards were obtained from Avanti Polar Lipids unless otherwise indicated. Calibration curves were generated by injecting varying concentrations of sterol standards and maintaining a fixed amount of cholesterol-D7. For normalized zymostenol accumulation results, the total amount of zymostenol measured after drug treatment was divided by the total amount of zymostenol accumulated after 24 hr treatment with 100 nM positive control reference.

The test system of the next test is EpiSC-derived OPCs. The experiment in a line: In vitro phenotypic screening of OPCs, MBP high-content imaging. Type of test: cell-based, mouse. The following applies: Mus musculus, 72 h, percentage of MBP+ oligodendrocytes; 3 days; 0.5 nM to 1000 nM; read-out: mOPC EC50. How it is done:
as §1
EpiSC-derived OPCs were grown and expanded in poly-L-ornithine (PO) and laminin-coated flasks in N2B27 media (DMEM/F12 (Gibco), N2-MAX (R&D Systems), B-27 (ThermoFisher), and GlutaMax (Gibco)) supplemented with FGF2 ([…], R&D systems, 233-FB-025) and PDGF-AA ([…], R&D systems, 233-AA-050) before harvesting for experiments. The cells were seeded onto poly-L-ornithine or poly-D-lysine coated CellCarrier Ultra plates (PerkinElmer) coated with laminin (Sigma, L2020) at a density of 150,000/cm^2 in N2B27 media without growth factors. For dose-response testing, a 1000× compound stock in dimethyl sulphoxide (DMSO) was added to assay plates, resulting in 8-point dose curves with final concentrations between 1000 nM and 0.5 nM. Positive controls and DMSO vehicle controls were included in each assay plate. Cells were incubated under standard conditions (37° C., 5% CO2) for 3 days and fixed with 4% paraformaldehyde (PFA) in phosphate buffered saline (PBS) for 20 min. Fixed plates were washed with PBS, permeabilized with 0.1% Triton X-100, and blocked with 10% donkey serum (v/v) in PBS for 40 min. Then, cells were labelled with MBP antibodies (Abcam, ab7349; 1:200) for 2 h at room temperature, washed with PBS, and stained with Alexa Fluor conjugated secondary antibodies (1:500) for 45 min. Nuclei were visualized by DAPI staining (Sigma; 1 μg/ml), followed by further PBS washes.
Cells and cell culture plates were imaged on the Operetta High Content Imaging and Analysis system (PerkinElmer). Analysis (PerkinElmer Harmony and Columbus software) began by identifying intact nuclei stained by DAPI. The peri-nuclear region of each cell was then cross-referenced with the mature myelin protein (MBP) stain to identify oligodendrocyte nuclei, and from this the percentage of oligodendrocytes was calculated. EC50 values were calculated using The Levenberg-Marquardt algorithm to fit a Hill equation to dose-response data (0.5 nM to 1000 nM).

Sequence of human emopamil binding protein and human 7-dehydrocholesterol reductase co-expressing cell membrane (Q15125 whole entry): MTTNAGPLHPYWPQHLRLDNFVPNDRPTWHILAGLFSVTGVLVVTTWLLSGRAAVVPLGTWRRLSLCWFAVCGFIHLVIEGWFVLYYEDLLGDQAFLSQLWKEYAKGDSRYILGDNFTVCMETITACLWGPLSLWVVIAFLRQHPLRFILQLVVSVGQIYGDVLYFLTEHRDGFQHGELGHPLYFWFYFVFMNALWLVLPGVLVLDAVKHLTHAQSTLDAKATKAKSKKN

For the molecule `CC(C)(CN1CCC2(CC1)CS(=O)(=O)C2)Oc1ccc(F)c(C(F)(F)F)c1` [Compound 220, 7-(2-(4-Fluoro-3-(trifluoromethyl)phenoxy)-2-methylpropyl)-2-thia-7-azaspiro[3.5]nonane 2,2-dioxide], the Ki (in general, the equilibrium dissociation constant of an inhibitor or competing ligand from its target) in test [1] is 11.9 nM. Further, in test [2], the EC50 (commonly the concentration that produces a half-maximal response) was 0.97 nM.
As to `O=S1(=O)CC2(CCN(CCOc3ccnc([C@H]4CC[C@H](C(F)(F)F)CC4)c3)CC2)C1` [245B*, 7-(2-((2-((trans)-4-(trifluoromethyl)cyclohexyl)pyridin-4-yl)oxy)ethyl)-2-thia-7-azaspiro[3.5]nonane 2,2-dioxide], the Ki in test [1] turned out to be 19.7 nM. Further, the EC50 in test [2] worked out at 8.37 nM.
`O=S1(=O)CC2(CCN(CCOc3ccnc([C@H]4CC[C@@H](C(F)(F)F)CC4)c3)CC2)C1` [245A*, 7-(2-((2-((cis)-4-(Trifluoromethyl)cyclohexyl)pyridin-4-yl)oxy)ethyl)-2-thia-7-azaspiro[3.5]nonane 2,2-dioxide]: the affinity in test [1], expressed as Ki, was 16 nM. Further, the EC50 in test [2] was found to be 10.5 nM.
For `C[C@@H](Cc1ccc(C(F)(F)F)cc1)CN1CC2(CCS(=O)(=O)CC2)C1` (single isomer, unassigned) [232B*], the values for the 50% effective concentration (EC50) (in the test with EpiSC-derived OPCs; in test [2]) were 15 nM and 5.7 nM, respectively. Moreover, the affinity in test [1] corresponds to a Ki of 12.7 nM.
Take `C[C@@H](Cc1ccc(C2(C)CC2)cc1)CN1CCC2(C1)CS(=O)(=O)C2` (single isomer, unassigned) [111C*]: the EC50 came out at 6.1 nM in the test on EpiSC-derived OPCs and 7.1 nM in test [2].
The matching figures for `O=S1(=O)CC2(CCN(CCCc3ccc(C(F)(F)F)cc3)C2)C1` [Compound 113, 6-(3-(4-(Trifluoromethyl)phenyl)propyl)-2-thia-6-azaspiro[3.4]octane-2,2-dioxide]: 18 nM and 0.41 nM.
The matching figures for `O=S1(=O)CC2(CCN(CCOc3cnc(C(F)(F)F)c(Cl)c3)CC2)C1` [Compound 242, 7-[2-[[5-Chloro-6-(trifluoromethyl)-3-pyridyl]oxy]ethyl]-26-thia-7-azaspiro[3.5]nonane 2,2-dioxide]: 16.3 nM and 4.51 nM.
The matching figures for `CC(Cc1ccc(C(F)(F)F)cc1)CN1CCC2(C1)CS(=O)(=O)C2` (stereo not shown) [Compound 104, 6-(2-Methyl-3-(4-(trifluoromethyl)phenyl)propyl)-2-thia-6-azaspiro[3.4]octane 2,2-dioxide]: 1.7 nM and 0.48 nM.
For `C[C@H](Cc1ccc(C(F)(F)F)nc1)CN1CC2(CCS(=O)(=O)CC2)C1` (single isomer, unassigned) [234A*], in test [1], affinity was put at a Ki of 250 nM. In addition, in test [2], the EC50 turned out to be 49 nM.
For `CC(C)(CN1CCC2(CC1)CS(=O)(=O)C2)Oc1ccc(F)c(F)c1` [Example 156, 7-(2-(3,4-Difluorophenoxy)-2-methylpropyl)-2-thia-7-azaspiro[3.5]nonane 2,2-dioxide], in that order: 13.9 nM and 1.5 nM.
As for `CC(C)(Cc1ccc(C(F)(F)F)cc1)CN1CCC2(C1)CS(=O)(=O)C2` [Example 125, 6-(2,2-Dimethyl-3-(4-(trifluoromethyl)phenyl)propyl)-2-thia-6-azaspiro[3.4]octane-2,2-dioxide], the EC50 in the test with EpiSC-derived OPCs is 0.72 nM; in test [2], 0.62 nM.
`C[C@@H](CN1CCC2(CC1)CS(=O)(=O)C2)Oc1ccc(C(F)(F)F)nc1` (single isomer, unassigned) [Example 207A*]: the affinity in test [1] corresponds to a Ki of 33.6 nM. In addition, the 50% effective concentration (EC50) in test [2] stood at 31 nM.
The matching figures for `O=S1(=O)CC2(CCN(CCOc3ccc(-c4ccc(C(F)(F)F)nc4)nc3)CC2)C1` [Compound 241, 7-[2-[[6-[6-(Trifluoromethyl)-3-pyridyl]-3-pyridyl]oxy]ethyl]-26-thia-7-azaspiro[3.5]nonane 2,2-dioxide]: 69 nM and 14.9 nM.
For `C[C@@H](Cc1ccc(C2CCC(F)(F)CC2)c(Cl)c1)CN1CCC2(C1)CS(=O)(=O)C2` (single isomer, unassigned) [117A*], the EC50 with EpiSC-derived OPCs was determined as 1.5 nM. In addition, in test [1], the Ki is 9.43 nM.
Regarding `C[C@H](Cc1ccc(C2(C)CC2)cc1)CN1CCC2(C1)CS(=O)(=O)C2` (single isomer, unassigned) [111B*], the EC50 turned out to be 1.5 nM in the test with EpiSC-derived OPCs and 1.4 nM in test [2].
Molecule `O=S1(=O)CC2(CCN(CCOc3cnc(C4CCCCC4)c(C(F)(F)F)c3)CC2)C1` [Compound 244, 7-(2-((6-Cyclohexyl-5-(trifluoromethyl)pyridin-3-yl)oxy)ethyl)-2-thia-7-azaspiro[3.5]nonane 2,2-dioxide] yielded a Ki in test [1] of 10.7 nM. In addition, the EC50 in test [2] came out at 23.5 nM.
`O=S1(=O)CC2(CCN(CCOc3ccc([C@H]4CC[C@@H](C(F)(F)F)CC4)nc3)CC2)C1` [247B*, 7-(2-((6-((cis)-4-(trifluoromethyl)cyclohexyl)pyridin-3-yl)oxy)ethyl)-2-thia-7-azaspiro[3.5]nonane 2,2-dioxide]: in test [1], affinity was put at a Ki of 8.97 nM. For the same molecule, the EC50 in test [2] came out at 68.6 nM.
For `Cc1nc(C(F)(F)F)ccc1OCCN1CCC2(CC1)CS(=O)(=O)C2` [Compound 243, 7-[2-[[2-Methyl-6-(trifluoromethyl)-3-pyridyl]oxy]ethyl]-26-thia-7-azaspiro[3.5]nonane 2,2-dioxide], in that order: 53 nM and 6.61 nM.

Values taken from patent US20240400579A1, “SPIROCYCLIC MODULATORS OF CHOLESTEROL BIOSYNTHESIS AND THEIR USE FOR PROMOTING REMYELINATION” (GENENTECH, INC., priority 2021, published 2024).
